Laboratory results taken from PubChem BioAssay AID324 (DTP/NCI, 2004).
Where “and” joins values, the source holds several entries; their conditions need not be identical. Equal values may be shown once. Inconclusive results and toxic doses are left out.

System: CD2F1 mice, AMSA-resistant P388 leukemia ip, median survival T/C
Assay: NCI In Vivo Anticancer Drug Screen. Data for tumor model P388 Leukemia resistant to AMSA; NSC 249992 (intraperitoneal) in CD2F1 (CDF1) mice
Settings: endpoint: median survival time, higher = longer survival
Procedure: The antitumor activity of compounds was measured in mice bearing transplantable tumors. Survival or tumor size were measured and the results are expressed as the measurement made in the treated group (T) divided by the measurement made in the vehicle treated control group (C). The tumor model used in this assay is P388 Leukemia resistant to AMSA; NSC 249992 (intraperitoneal) in CD2F1 (CDF1) mice

Structure (SMILES): Cc1c2ccncc2c(C)c2c1[nH]c1ccccc12
- T/C (dose: 7.78 mg/kg/injection, schedule: Q04DX003 (ip), vehicle: saline with Tween-80): 100 % of control
- T/C (dose: 13.0 mg/kg/injection, schedule: Q04DX003 (ip), vehicle: saline with Tween-80): 87 % of control
- T/C (dose: 13.0 mg/kg/injection, schedule: Q04DX003 (ip), vehicle: water): 96 % of control
- T/C (dose: 21.6 mg/kg/injection, schedule: Q04DX003 (ip), vehicle: saline with Tween-80): 100 % of control
- T/C (dose: 21.6 mg/kg/injection, schedule: Q04DX003 (ip), vehicle: water): 100 % of control
- T/C (dose: 25.9 mg/kg/injection, schedule: Q04DX002 (ip), vehicle: saline with Tween-80): 100 % of control
- T/C (dose: 36.0 mg/kg/injection, schedule: Q04DX003 (ip), vehicle: saline with Tween-80): 101 % of control
- T/C (dose: 36.0 mg/kg/injection, schedule: Q04DX003 (ip), vehicle: water): 101 % of control
- T/C (dose: 43.2 mg/kg/injection, schedule: Q04DX002 (ip), vehicle: saline with Tween-80): 98 % of control
- T/C (dose: 60.0 mg/kg/injection, schedule: Q04DX003 (ip), vehicle: saline with Tween-80): 109 % of control
- T/C (dose: 60.0 mg/kg/injection, schedule: Q04DX003 (ip), vehicle: water): 89 % of control
- T/C (dose: 72.0 mg/kg/injection, schedule: Q04DX002 (ip), vehicle: saline with Tween-80): 95 % of control
- T/C (dose: 120.0 mg/kg/injection, schedule: Q04DX002 (ip), vehicle: saline with Tween-80): 95 % of control
- T/C (dose: 200.0 mg/kg/injection, schedule: Q04DX002 (ip), vehicle: saline with Tween-80): 95 % of control

Structure (SMILES): COc1cccc2c1C(=O)c1c(O)c3c(c(O)c1C2=O)C[C@@](O)(/C(C)=N/NC(=O)c1ccccc1)C[C@@H]3OC1CC(N)C(O)C(C)O1 (stereo partly specified)
- T/C (dose: 1.94 mg/kg/injection, schedule: Q04DX003 (ip), vehicle: water): 109 % of control
- T/C (dose: 3.24 mg/kg/injection, schedule: Q04DX003 (ip), vehicle: water): 117 % of control
- T/C (dose: 5.4 mg/kg/injection, schedule: Q04DX003 (ip), vehicle: water): 123 % of control
- T/C (dose: 9.0 mg/kg/injection, schedule: Q04DX003 (ip), vehicle: water): 123 % of control
- T/C (dose: 15.0 mg/kg/injection, schedule: Q04DX003 (ip), vehicle: water): 115 % of control

Structure (SMILES): O=C1c2c(O)ccc(O)c2C(=O)c2c(NCCNCCO)ccc(NCCNCCO)c21
- T/C (dose: 1.3 mg/kg/injection, schedule: Q04DX002 (ip), vehicle: water): 110 % of control
- T/C (dose: 3.6 mg/kg/injection, schedule: Q04DX003 (ip), vehicle: saline): 157 % of control
- T/C (dose: 6.0 mg/kg/injection, schedule: Q04DX002 (ip), vehicle: water): 96 % of control
- T/C (dose: 6.0 mg/kg/injection, schedule: Q04DX003 (ip), vehicle: saline): 96 % of control and 123 % of control
- T/C (dose: 10.0 mg/kg/injection, schedule: Q04DX002 (ip), vehicle: water): 89 % of control

Structure (SMILES): NC(=O)c1csc(C2OC(CO)C(O)C2O)n1 (stereo unspecified)
- T/C (dose: 330.0 mg/kg/injection, schedule: Q01DX009 (ip), vehicle: water): 188 % of control
- T/C (dose: 500.0 mg/kg/injection, schedule: Q01DX009 (ip), vehicle: water): 88 % of control

Structure (SMILES): O=NN(CCCl)C(=O)NCCCl
- T/C (dose: 3.89 mg/kg/injection, schedule: Q04DX003 (ip), vehicle: saline + alcohol): 164 % of control
- T/C (dose: 6.48 mg/kg/injection, schedule: Q04DX003 (ip), vehicle: saline + alcohol): 222 % of control
- T/C (dose: 10.8 mg/kg/injection, schedule: Q04DX003 (ip), vehicle: saline + alcohol): 267 % of control
- T/C (dose: 18.0 mg/kg/injection, schedule: Q04DX003 (ip), vehicle: saline + alcohol): 387 % of control
- T/C (dose: 30.0 mg/kg/injection, schedule: Q04DX003 (ip), vehicle: saline + alcohol): 115 % of control

Structure (SMILES): C(=N/NC1=NCCN1)/c1c2ccccc2c(/C=N\NC2=NCCN2)c2ccccc12
- T/C (dose: 5.18 mg/kg/injection, schedule: Q04DX002 (ip), vehicle: saline): 121 % of control
- T/C (dose: 14.4 mg/kg/injection, schedule: Q04DX002 (ip), vehicle: saline): 123 % of control
- T/C (dose: 40.0 mg/kg/injection, schedule: Q04DX002 (ip), vehicle: saline): 123 % of control

Structure (SMILES): O=c1[nH]cc(F)c(=O)[nH]1
- T/C (dose: 21.6 mg/kg/injection, schedule: Q04DX003 (ip), vehicle: saline): 155 % of control
- T/C (dose: 36.0 mg/kg/injection, schedule: Q04DX003 (ip), vehicle: saline): 165 % of control
- T/C (dose: 60.0 mg/kg/injection, schedule: Q04DX003 (ip), vehicle: saline): 168 % of control
- T/C (dose: 100.0 mg/kg/injection, schedule: Q04DX003 (ip), vehicle: saline): 170 % of control

Structure (SMILES): NCCCCS(=O)(=O)Nc1ccc(Nc2c3ccccc3nc3cc([N+](=O)[O-])ccc23)cc1
- T/C (dose: 38.9 mg/kg/injection, schedule: Q04DX003 (ip), vehicle: water): 93 % of control
- T/C (dose: 64.8 mg/kg/injection, schedule: Q04DX003 (ip), vehicle: water): 93 % of control
- T/C (dose: 108.0 mg/kg/injection, schedule: Q04DX003 (ip), vehicle: water): 95 % of control

Structure (SMILES): COc1cc2cc3c4cc(OC)c(OC)cc4cc[n+]3c(C)c2cc1OC (tested in a mixture with another compound)
- T/C (dose: 25.9 mg/kg/injection, schedule: Q04DX003 (ip), vehicle: water): 110 % of control
- T/C (dose: 43.2 mg/kg/injection, schedule: Q04DX003 (ip), vehicle: water): 116 % of control

Structure (SMILES): CO[C@H]1C[C@](C)(O)Cc2cc3c(c(O)c21)C(=O)c1c(O)cc2c(c1C3=O)O[C@@H]1O[C@@]2(C)[C@H](O)[C@@H](N(C)C)[C@@H]1O
- T/C (dose: 6.48 mg/kg/injection, schedule: Q04DX003 (ip), vehicle: other): 111 % of control
- T/C (dose: 10.8 mg/kg/injection, schedule: Q04DX003 (ip), vehicle: other): 114 % of control
- T/C (dose: 18.0 mg/kg/injection, schedule: Q04DX003 (ip), vehicle: other): 110 % of control
- T/C (dose: 30.0 mg/kg/injection, schedule: Q04DX003 (ip), vehicle: other): 102 % of control

Structure (SMILES): COc1cccc2c1C(=O)c1c(O)c3c(c(O)c1C2=O)C[C@@](O)(C(=O)CO)C[C@@H]3OC1CC(N)C(O)C(C)O1 (stereo partly specified)
- T/C (dose: 0.97 mg/kg/injection, schedule: Q04DX003 (ip), vehicle: saline): 118 % of control and 124 % of control
- T/C (dose: 1.3 mg/kg/injection, schedule: Q04DX002 (ip), vehicle: saline): 109 % of control and 86 % of control
- T/C (dose: 1.62 mg/kg/injection, schedule: Q04DX003 (ip), vehicle: saline): 121 % of control
- T/C (dose: 2.16 mg/kg/injection, schedule: Q04DX002 (ip), vehicle: saline): 104 % of control
- T/C (dose: 2.7 mg/kg/injection, schedule: Q04DX003 (ip), vehicle: saline): 122 % of control
- T/C (dose: 4.5 mg/kg/injection, schedule: Q04DX003 (ip), vehicle: saline): 152 % of control
- T/C (dose: 6.0 mg/kg/injection, schedule: Q04DX002 (ip), vehicle: saline): 90 % of control

Structure (SMILES): CC(=O)[C@]1(O)Cc2c(O)c3c(c(O)c2[C@@H](OC2CC(N)C(O)C(C)O2)C1)C(=O)c1c(O)cccc1C3=O (stereo partly specified)
- T/C (dose: 0.13 mg/kg/injection, schedule: Q04DX003 (ip), vehicle: water): 122 % of control
- T/C (dose: 0.21 mg/kg/injection, schedule: Q04DX003 (ip), vehicle: water): 115 % of control
- T/C (dose: 0.36 mg/kg/injection, schedule: Q04DX003 (ip), vehicle: water): 109 % of control
- T/C (dose: 0.6 mg/kg/injection, schedule: Q04DX003 (ip), vehicle: water): 124 % of control
- T/C (dose: 1.0 mg/kg/injection, schedule: Q04DX003 (ip), vehicle: water): 97 % of control

Structure (SMILES): CCCCCCCC(=O)OCC(=O)[C@]1(O)Cc2c(O)c3c(c(O)c2[C@@H](OC2CC(N)C(O)C(C)O2)C1)C(=O)c1c(OC)cccc1C3=O (stereo partly specified)
- T/C (dose: 13.3 mg/kg/injection, schedule: Q04DX003 (ip), vehicle: water): 102 % of control

Structure (SMILES): CCCCC(=O)OCC(=O)[C@]1(O)Cc2c(O)c3c(c(O)c2[C@@H](OC2CC(NC(=O)C(F)(F)F)C(O)C(C)O2)C1)C(=O)c1c(OC)cccc1C3=O (stereo partly specified)
- T/C (dose: 19.4 mg/kg/injection, schedule: Q04DX003 (ip), vehicle: clinical formulation): 106 % of control
- T/C (dose: 32.4 mg/kg/injection, schedule: Q04DX003 (ip), vehicle: clinical formulation): 117 % of control
- T/C (dose: 54.0 mg/kg/injection, schedule: Q04DX003 (ip), vehicle: clinical formulation): 120 % of control
- T/C (dose: 90.0 mg/kg/injection, schedule: Q04DX003 (ip), vehicle: clinical formulation): 113 % of control

Structure (SMILES): Nc1ncn(C2OC(CO)C(O)C2O)c(=O)n1 (stereo unspecified)
- T/C (dose: 2.59 mg/kg/injection, schedule: Q04DX003 (ip), vehicle: saline): 156 % of control
- T/C (dose: 4.32 mg/kg/injection, schedule: Q04DX003 (ip), vehicle: saline): 200 % of control
- T/C (dose: 7.2 mg/kg/injection, schedule: Q04DX003 (ip), vehicle: saline): 200 % of control
- T/C (dose: 12.0 mg/kg/injection, schedule: Q04DX003 (ip), vehicle: saline): 211 % of control
- T/C (dose: 20.0 mg/kg/injection, schedule: Q04DX003 (ip), vehicle: saline): 276 % of control

Structure (SMILES): COc1cccc2c1C(=O)c1c(O)c3c(c(O)c1C2=O)C[C@@](O)(C(=O)CO)C[C@@H]3OC1CC(NCc2ccccc2)C(O)C(C)O1 (stereo partly specified)
- T/C (dose: 3.89 mg/kg/injection, schedule: Q04DX003 (ip), vehicle: water): 123 % of control
- T/C (dose: 30.0 mg/kg/injection, schedule: Q04DX003 (ip), vehicle: water): 100 % of control
